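Five concentrations, 48 hours, 96-well plates. Abbreviation: GI50, concentration required for 50% inhibition of growth.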 Active and inactive are the calls of the source. Cut-off read from the data, not from the text of the source: active = GI50 up to about 1.1 µM and inactive = higher.
Tests used:
Assay in all cases: DTP human tumour cell line panel, 48 h
[1] = tested on: A498
[2] = tested on: A549
[3] = tested on: COLO 205
[4] = tested on: DU-145
[5] = tested on: HOP-92
[6] = tested on: MCF7
[7] = tested on: MDA-MB-231
[8] = tested on: MDA-MB-435
[9] = tested on: MOLT-4
[10] = tested on: SF-295
[11] = tested on: SN12C
[12] = tested on: SW-620
[13] = tested on: T47D
[14] = tested on: TK-10
[15] = tested on: UACC-62
[16] = tested on: UO-31
[17] = tested on: Malme-3M
[18] = tested on: SK-MEL-28
[19] = tested on: SK-OV-3
[20] = tested on: U-251

Measured: GI50

Cc1ccnc2c1ccc1nc3ccccc3n12
inactive: [1] > 100 µM | [2] > 100 µM | [3] > 100 µM | [4] > 100 µM | [5] 85.1 µM | [6] 4.45 µM | [7] 54.7 µM | [8] > 100 µM | [9] > 100 µM | [10] 87.7 µM | [11] 61.5 µM | [12] > 100 µM | [13] 18.5 µM | [14] > 100 µM | [15] > 100 µM | [16] 30.6 µM

CCN(CC)CCC(=O)c1ccc(Oc2ccc(C)cc2)cc1
inactive: [2] > 100 µM | [3] 23.4 µM | [4] 29.1 µM | [5] 23.7 µM | [6] 17.6 µM | [7] 16.9 µM | [8] 18 µM | [9] 21.6 µM | [17] 17.5 µM | [10] 17.5 µM | [18] 16.9 µM | [19] 28.4 µM | [11] 16.7 µM | [12] 18.7 µM | [13] 18.2 µM | [14] 17.7 µM | [20] 17 µM | [15] 17.3 µM

c1cncc(C2(c3cc4ccccc4[nH]3)COCO2)c1 (stereo unspecified)
inactive: [2] 94.2 µM | [3] 19.1 µM | [4] > 100 µM | [5] > 100 µM | [6] > 100 µM | [7] > 100 µM | [8] > 100 µM | [9] 97.9 µM | [17] > 100 µM | [10] > 100 µM | [18] > 100 µM | [19] > 100 µM | [12] > 100 µM | [13] > 100 µM | [14] > 100 µM | [20] > 100 µM | [15] 96.8 µM | [16] 58.3 µM

CCOC(=O)c1cnc2oc(/C=N/N3CC(CN4CCOCC4)OC3=O)cc2c1O (stereo unspecified)
inactive: [2] > 100 µM | [3] > 100 µM | [4] > 100 µM | [5] > 100 µM | [6] > 100 µM | [7] > 100 µM | [8] > 100 µM | [9] > 100 µM | [17] > 100 µM | [10] > 100 µM | [18] > 100 µM | [19] > 100 µM | [11] > 100 µM | [12] > 100 µM | [13] > 100 µM | [14] > 100 µM | [20] > 100 µM | [15] > 100 µM | [16] > 100 µM
